Measurements reported in patent US9340590B2 (priority 2011, dated 2016).
Where two headings read alike, the source gives them in different places. Positions of bridges follow the written chain, without caps; N, C: chain ends. Residues, ends and D or L forms follow the SMILES beside them. Groups on a side chain read outwards from the residue. Pra = C#CC[C@H](N)C(=O)O

Columns and labels:
Assay in all cases: cell-based
hNav1.3 = hNav1.3 (Homo sapiens, UniProt Q9NY46); settings: IonWorks Quattro, read-out: IWQ Use Nav1.3
hNav1.5 = hNav1.5 (Homo sapiens, UniProt Q14524)
hNav1.7 = hNav1.7 (Homo sapiens, UniProt Q15858); format: cell-based; settings: IonWorks Quattro, read-out: IWQ Use Nav1.7
[1] = IonWorks Quattro, use-dependent block, hNav1.5, read-out: IWQ Use Nav1.5

Chain of hNav1.5 (Q14524 whole entry, looked up): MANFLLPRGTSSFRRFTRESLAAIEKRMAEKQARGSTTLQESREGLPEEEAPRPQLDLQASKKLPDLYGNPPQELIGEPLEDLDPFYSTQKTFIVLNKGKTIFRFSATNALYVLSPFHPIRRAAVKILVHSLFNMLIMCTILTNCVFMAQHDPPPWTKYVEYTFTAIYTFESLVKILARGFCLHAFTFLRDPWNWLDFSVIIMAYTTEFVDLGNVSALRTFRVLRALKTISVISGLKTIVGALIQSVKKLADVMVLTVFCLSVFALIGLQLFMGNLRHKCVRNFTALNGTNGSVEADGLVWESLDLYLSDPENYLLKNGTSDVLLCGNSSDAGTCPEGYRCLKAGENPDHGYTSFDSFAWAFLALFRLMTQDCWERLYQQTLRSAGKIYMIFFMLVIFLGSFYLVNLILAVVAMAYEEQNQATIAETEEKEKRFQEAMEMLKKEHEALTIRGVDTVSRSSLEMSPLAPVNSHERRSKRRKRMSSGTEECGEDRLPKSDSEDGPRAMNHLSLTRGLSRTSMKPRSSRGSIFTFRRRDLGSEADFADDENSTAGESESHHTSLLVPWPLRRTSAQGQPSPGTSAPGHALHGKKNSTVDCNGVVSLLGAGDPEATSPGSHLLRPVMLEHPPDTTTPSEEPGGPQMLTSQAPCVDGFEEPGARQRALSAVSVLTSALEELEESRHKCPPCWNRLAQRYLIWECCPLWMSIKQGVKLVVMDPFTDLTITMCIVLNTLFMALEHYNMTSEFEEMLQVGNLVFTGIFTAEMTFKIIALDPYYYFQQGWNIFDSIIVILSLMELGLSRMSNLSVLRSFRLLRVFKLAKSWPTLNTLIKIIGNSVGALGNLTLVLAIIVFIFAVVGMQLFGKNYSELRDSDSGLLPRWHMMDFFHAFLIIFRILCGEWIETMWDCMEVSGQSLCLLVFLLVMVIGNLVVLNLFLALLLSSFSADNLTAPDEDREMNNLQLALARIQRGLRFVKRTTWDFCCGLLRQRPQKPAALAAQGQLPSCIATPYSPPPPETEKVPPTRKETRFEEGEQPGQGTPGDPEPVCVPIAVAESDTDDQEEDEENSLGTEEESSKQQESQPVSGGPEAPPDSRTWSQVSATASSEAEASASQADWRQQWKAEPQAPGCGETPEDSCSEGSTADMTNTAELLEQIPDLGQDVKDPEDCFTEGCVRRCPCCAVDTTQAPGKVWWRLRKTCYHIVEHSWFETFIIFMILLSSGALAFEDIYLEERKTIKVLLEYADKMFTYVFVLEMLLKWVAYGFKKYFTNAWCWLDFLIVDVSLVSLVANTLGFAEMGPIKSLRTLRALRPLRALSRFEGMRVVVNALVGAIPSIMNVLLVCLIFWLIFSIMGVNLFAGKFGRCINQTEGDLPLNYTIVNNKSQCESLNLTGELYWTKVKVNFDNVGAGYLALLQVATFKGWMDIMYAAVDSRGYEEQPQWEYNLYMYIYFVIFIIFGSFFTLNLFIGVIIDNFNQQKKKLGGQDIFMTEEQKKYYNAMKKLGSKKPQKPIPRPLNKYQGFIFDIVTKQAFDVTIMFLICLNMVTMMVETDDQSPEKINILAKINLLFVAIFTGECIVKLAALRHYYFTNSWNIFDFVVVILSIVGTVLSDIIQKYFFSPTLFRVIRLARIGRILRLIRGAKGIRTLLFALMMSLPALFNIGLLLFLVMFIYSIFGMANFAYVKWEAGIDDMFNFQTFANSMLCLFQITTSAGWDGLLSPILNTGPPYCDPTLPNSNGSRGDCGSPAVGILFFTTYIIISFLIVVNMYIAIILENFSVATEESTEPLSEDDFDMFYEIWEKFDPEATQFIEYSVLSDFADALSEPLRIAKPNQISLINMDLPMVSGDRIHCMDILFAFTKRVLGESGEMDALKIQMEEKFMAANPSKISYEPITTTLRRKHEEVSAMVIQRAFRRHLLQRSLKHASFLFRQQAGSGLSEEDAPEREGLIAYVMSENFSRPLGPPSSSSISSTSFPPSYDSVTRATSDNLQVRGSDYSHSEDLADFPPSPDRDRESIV
Chain of hNav1.7 (Q15858 whole entry, looked up): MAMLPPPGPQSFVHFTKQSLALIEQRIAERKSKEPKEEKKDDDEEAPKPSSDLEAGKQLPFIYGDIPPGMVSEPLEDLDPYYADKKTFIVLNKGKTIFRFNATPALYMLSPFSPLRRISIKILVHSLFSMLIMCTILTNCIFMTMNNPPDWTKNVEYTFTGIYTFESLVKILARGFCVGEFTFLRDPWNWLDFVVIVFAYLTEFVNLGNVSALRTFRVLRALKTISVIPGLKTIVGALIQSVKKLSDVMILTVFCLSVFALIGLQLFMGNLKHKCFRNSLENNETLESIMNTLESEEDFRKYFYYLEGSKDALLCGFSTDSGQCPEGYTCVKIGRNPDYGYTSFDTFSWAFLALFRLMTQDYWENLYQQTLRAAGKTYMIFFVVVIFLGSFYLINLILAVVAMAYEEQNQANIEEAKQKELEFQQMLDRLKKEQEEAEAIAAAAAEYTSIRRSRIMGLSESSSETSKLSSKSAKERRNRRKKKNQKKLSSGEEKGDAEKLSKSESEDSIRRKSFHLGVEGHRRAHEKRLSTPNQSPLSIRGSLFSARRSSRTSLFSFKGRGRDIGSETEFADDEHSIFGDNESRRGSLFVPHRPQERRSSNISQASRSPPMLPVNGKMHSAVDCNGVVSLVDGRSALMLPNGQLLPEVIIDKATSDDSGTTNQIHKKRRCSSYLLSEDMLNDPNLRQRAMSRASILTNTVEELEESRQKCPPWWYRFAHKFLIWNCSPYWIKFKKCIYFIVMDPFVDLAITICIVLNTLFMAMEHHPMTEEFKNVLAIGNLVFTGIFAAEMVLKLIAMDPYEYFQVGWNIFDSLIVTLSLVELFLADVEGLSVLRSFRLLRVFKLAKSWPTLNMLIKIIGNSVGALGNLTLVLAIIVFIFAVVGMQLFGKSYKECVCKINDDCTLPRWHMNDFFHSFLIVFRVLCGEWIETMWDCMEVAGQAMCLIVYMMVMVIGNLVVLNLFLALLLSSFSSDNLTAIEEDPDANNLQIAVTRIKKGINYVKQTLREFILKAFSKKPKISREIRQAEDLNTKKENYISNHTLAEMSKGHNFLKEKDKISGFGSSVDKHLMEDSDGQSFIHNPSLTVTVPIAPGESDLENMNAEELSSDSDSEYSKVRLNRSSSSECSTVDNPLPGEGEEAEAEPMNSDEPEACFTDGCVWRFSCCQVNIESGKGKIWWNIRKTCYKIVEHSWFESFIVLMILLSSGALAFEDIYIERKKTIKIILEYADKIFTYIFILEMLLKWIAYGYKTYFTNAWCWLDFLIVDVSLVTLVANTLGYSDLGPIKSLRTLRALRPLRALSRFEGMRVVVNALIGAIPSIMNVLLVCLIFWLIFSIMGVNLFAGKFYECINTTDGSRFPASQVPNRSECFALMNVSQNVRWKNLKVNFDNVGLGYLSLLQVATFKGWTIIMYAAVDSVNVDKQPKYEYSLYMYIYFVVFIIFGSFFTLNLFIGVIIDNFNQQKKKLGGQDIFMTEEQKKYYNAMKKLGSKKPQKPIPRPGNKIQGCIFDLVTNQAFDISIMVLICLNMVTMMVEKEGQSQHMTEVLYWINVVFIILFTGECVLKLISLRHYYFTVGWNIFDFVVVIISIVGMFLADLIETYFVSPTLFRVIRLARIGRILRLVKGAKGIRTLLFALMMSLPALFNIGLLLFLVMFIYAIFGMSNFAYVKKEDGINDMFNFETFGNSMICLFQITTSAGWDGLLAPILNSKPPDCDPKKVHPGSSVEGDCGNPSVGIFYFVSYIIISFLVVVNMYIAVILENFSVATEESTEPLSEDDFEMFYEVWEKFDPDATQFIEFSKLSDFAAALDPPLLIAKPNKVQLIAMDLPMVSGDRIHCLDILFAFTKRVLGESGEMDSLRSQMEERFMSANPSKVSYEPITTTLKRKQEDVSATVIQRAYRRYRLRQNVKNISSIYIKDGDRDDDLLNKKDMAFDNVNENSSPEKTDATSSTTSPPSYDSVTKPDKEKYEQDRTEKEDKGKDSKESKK

Structure (SMILES)	IC50 (hNav1.3; use-dependent block, hNav1.3)	IC50 (hNav1.5; [1])	IC50 (hNav1.7; use-dependent block, hNav1.7)	also measured
CC[C@H](C)[C@@H]1NC(=O)[C@@H]2CSSC[C@@H]3NC(=O)[C@H](C(C)C)NC(=O)[C@H](CC(C)C)NC(=O)[C@H](CC(N)=O)NC(=O)[C@@H]4CCCN4C(=O)[C@H](CCCNC(=N)N)NC(=O)[C@H](CSSC[C@H](NC(=O)[C@@H](N)CC(=O)O)C(=O)N[C@@H](CC(C)C)C(=O)NCC(=O)N[C@@H](C)C(=O)N[C@@H](CC(C)C)C(=O)N[C@@H](CCCNC(=N)N)C(=O)N[C@@H](CCCCN)C(=O)N2)NC(=O)[C@H](CSSC[C@@H](C(=O)N[C@@H](CCCCN)C(=O)N[C@@H](Cc2ccc(O)cc2)C(=O)N[C@H](C(=O)N[C@@H](Cc2ccccc2)C(=O)O)C(C)C)NC(=O)[C@H](Cc2c[nH]c4ccccc24)NC(=O)[C@H](CCCNC(=N)N)NC(=O)[C@H](Cc2c[nH]cn2)NC(=O)[C@H]([C@@H](C)O)NC(=O)[C@H](CCCNC(=N)N)NC(=O)[C@H](CO)NC3=O)NC(=O)[C@H](CCCCN)NC(=O)[C@H](CC(=O)O)NC(=O)[C@H](CCCNC(=N)N)NC(=O)[C@H](CC(=O)O)NC(=O)[C@@H]2CCCN2C1=O [compound 870] (H-DCLGALRKCIPDRDKCCRPNLVCSRTHRWCKYVF-OH; disulfide 2-17, 9-23, 16-30)	1400 nM	> 5 µM	> 5000 nM	–
C#CC[C@H](NC(C)=O)C(=O)NCCCC[C@@H]1NC(=O)[C@H](CC(=O)O)NC(=O)[C@@H]2CCCN2C(=O)[C@H]([C@@H](C)CC)NC(=O)[C@@H]2CSSC[C@@H]3NC(=O)[C@H](C(C)C)NC(=O)[C@H](CC(C)C)NC(=O)[C@H](CC(N)=O)NC(=O)[C@@H]4CCCN4C(=O)[C@H](CCCNC(=N)N)NC(=O)[C@H](CSSC[C@H](NC(=O)[C@@H](N)CC(=O)O)C(=O)N[C@@H](CC(C)C)C(=O)NCC(=O)N[C@@H](C)C(=O)N[C@@H](Cc4ccccc4)C(=O)N[C@@H](CCCNC(=N)N)C(=O)N[C@@H](CCCCN)C(=O)N2)NC(=O)[C@H](CSSC[C@@H](C(=O)N[C@@H](CCCCN)C(=O)N[C@@H](Cc2ccc(O)cc2)C(=O)N[C@H](C(=O)N[C@@H](Cc2ccccc2)C(N)=O)C(C)C)NC(=O)[C@H](Cc2c[nH]c4ccccc24)NC(=O)[C@H](CCCCN)NC(=O)[C@H](Cc2c[nH]cn2)NC(=O)[C@H]([C@@H](C)O)NC(=O)[C@H](CCCNC(=N)N)NC(=O)[C@H](CO)NC3=O)NC(=O)[C@H](CCCCN)NC(=O)[C@H](CC(=O)O)NC1=O [compound 794] (H-DCLGAFRKCIPDK([Pra-Ac])DKCCRPNLVCSRTHKWCKYVF-NH2; disulfide 2-17, 9-23, 16-30)	700 nM	37.8 µM	890 nM	–
CC[C@H](C)[C@@H]1NC(=O)CNC(=O)CNC(=O)[C@H](CC(C)C)NC(=O)[C@@H](NC(=O)[C@@H](N)CC(=O)O)CSSC[C@@H]2NC(=O)[C@@H]3CSSC[C@@H](C(=O)N[C@@H](CCCCN)C(=O)N[C@@H](Cc4ccc(O)cc4)C(=O)N[C@H](C(=O)N[C@@H](Cc4ccccc4)C(N)=O)C(C)C)NC(=O)[C@H](Cc4c[nH]c5ccccc45)NC(=O)[C@H](CCCCN)NC(=O)[C@H](Cc4c[nH]cn4)NC(=O)[C@H]([C@@H](C)O)NC(=O)[C@H](CCCNC(=N)N)NC(=O)[C@H](CO)NC(=O)[C@H](CSSC[C@H](NC(=O)[C@H](CCCCN)NC(=O)[C@H](CCCNC(=N)N)NC1=O)C(=O)N[C@@H]([C@@H](C)CC)C(=O)N1CCC[C@H]1C(=O)N[C@@H](CC(=O)O)C(=O)N[C@@H](CC(N)=O)C(=O)N[C@@H](CC(=O)O)C(=O)N[C@@H](CCCCN)C(=O)N3)NC(=O)[C@H](C(C)C)NC(=O)[C@H](CC(C)C)NC(=O)[C@H](CC(N)=O)NC(=O)[C@@H]1CCCN1C(=O)[C@H](CCCNC(=N)N)NC2=O [compound 752] (H-DCLGGIRKCIPDNDKCCRPNLVCSRTHKWCKYVF-NH2; disulfide 2-17, 9-23, 16-30)	> 5000 nM	25.4 µM	> 5000 nM	–
CC[C@H](C)[C@@H]1NC(=O)[C@@H]2CSSC[C@@H]3NC(=O)[C@H](C(C)C)NC(=O)[C@H](CC(C)C)NC(=O)[C@H](CC(N)=O)NC(=O)[C@@H]4CCCN4C(=O)[C@H](CCCNC(=N)N)NC(=O)[C@H](CSSC[C@H](NC(=O)[C@@H](N)CC(=O)O)C(=O)N[C@@H](CC(C)C)C(=O)NCC(=O)N[C@@H](Cc4ccc(F)cc4)C(=O)N[C@@H](CC(C)C)C(=O)N[C@@H](CCCNC(=N)N)C(=O)N[C@@H](CCCCN)C(=O)N2)NC(=O)[C@H](CSSC[C@@H](C(=O)N[C@@H](CCCCN)C(=O)N[C@@H](Cc2ccc(O)cc2)C(=O)N[C@H](C(=O)N[C@@H](Cc2ccccc2)C(N)=O)C(C)C)NC(=O)[C@H](Cc2c[nH]c4ccccc24)NC(=O)[C@H](CCCCN)NC(=O)[C@H](Cc2c[nH]cn2)NC(=O)[C@H]([C@@H](C)O)NC(=O)[C@H](CCCNC(=N)N)NC(=O)[C@H](CO)NC3=O)NC(=O)[C@H](CCCCN)NC(=O)[C@H](CC(=O)O)NC(=O)[C@H](CC(N)=O)NC(=O)[C@H](CC(=O)O)NC(=O)[C@@H]2CCCN2C1=O [compound 669]	–	–	–	IC50 (hNav1.3; use-dependent protocol, hNav1.3): 37 nM; IC50 (hNav1.5; IonWorks Quattro, use-dependent protocol, hNav1.5, read-out: IWQ Use Nav1.5): > 5 µM; IC50 (hNav1.7; use-dependent protocol, hNav1.7): 91 nM
CC[C@H](C)[C@@H]1NC(=O)[C@@H]2CSSC[C@@H]3NC(=O)[C@H](C(C)C)NC(=O)[C@H](CC(C)C)NC(=O)[C@H](CC(N)=O)NC(=O)[C@@H]4CCCN4C(=O)[C@H](CCCNC(=N)N)NC(=O)[C@H](CSSC[C@H](NC(=O)[C@@H](N)CC(=O)O)C(=O)N[C@@H](CC(C)C)C(=O)NCC(=O)N[C@@H](Cc4ccccc4)C(=O)N[C@@H](CCSC)C(=O)N[C@@H](CCCNC(=N)N)C(=O)N[C@@H](CCCCN)C(=O)N2)NC(=O)[C@H](CSSC[C@@H](C(=O)N[C@@H](CCCCN)C(=O)N[C@@H](Cc2ccc(O)cc2)C(=O)N[C@H](C(=O)N[C@@H](Cc2ccccc2)C(N)=O)C(C)C)NC(=O)[C@H](Cc2c[nH]c4ccccc24)NC(=O)[C@H](CCCCN)NC(=O)[C@H](CC(C)C)NC(=O)[C@H]([C@@H](C)O)NC(=O)[C@H](CCCNC(=N)N)NC(=O)[C@H](CO)NC3=O)NC(=O)[C@H](CCCCN)NC(=O)[C@H](CC(=O)O)NC(=O)[C@H](CC(N)=O)NC(=O)[C@H](CC(=O)O)NC(=O)[C@@H]2CCCN2C1=O [compound 111] (H-DCLGFMRKCIPDNDKCCRPNLVCSRTLKWCKYVF-NH2; disulfide 2-17, 9-23, 16-30)	–	–	–	IC50 (hNav1.3; Table 23, use, […]): 1010 nM; IC50 (hNav1.5; Table 23, IonWorks Quattro, use, […], read-out: IWQ Use Nav1.5): 6.19 µM; IC50 (hNav1.7; Table 23, use, […]): 1150 nM
CC[C@H](C)[C@@H]1NC(=O)[C@@H]2CSSC[C@@H]3NC(=O)[C@H](C(C)C)NC(=O)[C@H](CC(C)C)NC(=O)[C@H](CC(N)=O)NC(=O)[C@@H]4CCCN4C(=O)[C@H](CCCNC(=N)N)NC(=O)[C@H](CSSC[C@H](NC(=O)[C@@H](N)CC(=O)O)C(=O)N[C@@H](CC(C)C)C(=O)NCC(=O)N[C@@H](Cc4ccccc4)C(=O)N[C@@H](CCSC)C(=O)N[C@@H](CCCNC(=N)N)C(=O)N[C@@H](CCCCN)C(=O)N2)NC(=O)[C@H](CSSC[C@@H](C(=O)N[C@@H](CCCCN)C(=O)N[C@@H](Cc2ccc(O)cc2)C(=O)N[C@H](C(=O)N[C@@H](Cc2ccccc2)C(N)=O)C(C)C)NC(=O)[C@H](Cc2c[nH]c4ccccc24)NC(=O)[C@H](CCCCN)NC(=O)[C@H](Cc2cnc[nH]2)NC(=O)[C@H]([C@@H](C)O)NC(=O)[C@H](CCCNC(=N)N)NC(=O)[C@H](CO)NC3=O)NC(=O)[C@H](CCCNC(=N)N)NC(=O)[C@H](CC(=O)O)NC(=O)[C@H](CC(N)=O)NC(=O)[C@H](CC(=O)O)NC(=O)[C@@H]2CCCN2C1=O [compound 68] (H-DCLGFMRKCIPDNDRCCRPNLVCSRTHKWCKYVF-NH2; disulfide 2-17, 9-23, 16-30)	–	–	–	IC50 (hNav1.3; Use): 140 nM; IC50 (hNav1.5; IWQ Use Nav1.5 (μM)): 18.1 µM; IC50 (hNav1.7; Use): 200 nM
